According to US20240277641A1, “METHODS FOR TREATING NERVOUS SYSTEM DISORDERS WITH […] AGENTS” (PAXMEDICA, INC., priority 2021, published 2024):
Read-outs that look alike come from different tables or passages of the source.

Assays:
mouse model of epilepsy = conditions: cited from earlier work
[1] = Suramin plasma pharmacokinetics in three-arm, randomized, double blind, placebo-controlled trial, intravenous infusion; format: in vivo, human; conditions: for Plasma Concentration / AUCInterval / AUCinterval/Dose / Cmax/Dose / Cmin / AUCOverall / AUCVisit 4 / AUCVisit 5 / AUCVisit 7 / Cmin, Visit 5 / Cmin, Visit 7 / Cmin. overall / Cmax / concentration at 28 day: mean; for half-life / Cmax / concentration at 28 day: male, human, plasma; for half-life: intravenous; for concentration at 28 day: read-out: Cmin, Visit 4
Source text: The following Table 2 outlines the visit schedule:
A non-compartmental pharmacokinetic (PK) approach consistent with the intravenous route of administration was used to estimate PK parameters in Watson LIMS software (version 7.5). […] All concentration values were in μg/mL, and all time points were in days as provided by the bioanalytical testing facility. Nominal dose concentrations and sampling times were used. The area under the plasma concentration-time curve (AUC) estimations were calculated on profiles having at least a quantifiable post-dose and pre-dose prior to the next dosing occasion. The observed maximum plasma concentration (Cmax) and time of Cmax (Tmax) were determined directly from the data.
Pharmacokinetic parameters were estimated using a non-compartmental approach consistent with intravenous infusion route of administration.
For area under the curve (AUC) estimation, measured plasma concentration for post dose and pre dose before the next dosing event were needed. For this study, samples for pharmacokinetic analysis were collected on days 1, 28, 56, and 96.
Whenever possible, standard deviation and coefficient of variation were determined by Watson LIMS software. For analyses that were not supported by Watson (i.e. custom comparisons), Excel was used and the statistics reported as determined by excel algorithms. Note that in either case, when the number of data points was less than three, standard deviation and coefficient of variation could not be calculated.
The route of administration was intravenous infusion over a 30 minute period on visits 2, 4, and 5.

[2] = tested on: male children with Autism Spectrum Disorder (ASD); test: Efficacy by Aberrant Behavior Checklist (ABC) versus suramin blood levels in the ASD trial; format: in vivo, human; conditions: 10 or 20 mg/kg IV
Protocol: (§1) This is the first time that multiple doses were studied in patients with neurodevelopmental disorders, and where they were observed over a long term duration. Previously, only a single 20 mg/kg dose had been described in an ASD study. See, R. K. Naviaux, “Antipurinergic therapy for autism—An in-depth review”, Mitochondrion 43, pp. 1-15 (2018), available online Dec. 16, 2017.
Each study participant attended a total of 7 visits, screening period (Visit 1.14 days), Randomization visit (Visit 2 day 1), treatment follow up visits (visit 3; day 14), treatment visit (visit 4; Day 28), treatment visit (visit 5; Day 56), End of treatment visit (visit 6; Day 77) and EOS (visit 7; day 98). Window period for screening until visit 2 will be ±14 days (thus the study procedures can be performed over 14 days) and for visit 2 onwards will be ±2 days (thus the procedures can be performed over 5 days) (Visit 2 to 7).

[3] = tested on: male children with Autism Spectrum Disorder (ASD); test: Adverse effects in the ASD trial; format: in vivo, human
Protocol: as §1
Since only predose, 1 hour post dose, and before the next dose administration samples were collected, it was not possible to determine the exact distribution and elimination curves and therefore extrapolated parameters such as AUC0-∞ and T1/2 were not determinable.

[4] = cited from earlier work
[5] = 10 mg/kg to 20 mg/kg dose range
[6] = Table 3A, 10 mg dose group, IV, children
[7] = Table 3C, 20 mg dose group, IV, children
[8] = Table 7, 10 mg/kg Dose, n = 13, IV
[9] = Table 7, 20 mg/kg Dose, n = 14, IV

O=C(NCC1(N2CCN(c3ccccc3)CC2)CCOCC1)c1cccnc1Sc1ccccc1 [JNJ-47965567, 2-(Phenylthio)-N-[[tetrahydro-4-(4-phenyl-1-piperazinyl)-2H-pyran-4-yl]methyl]-3-pyridinecarboxamide]
epileptic seizures (mouse model of epilepsy): suppress epileptic seizures

Cc1ccc(C(=O)Nc2ccc(S(=O)(=O)O)c3cc(S(=O)(=O)O)cc(S(=O)(=O)O)c23)cc1NC(=O)c1cccc(NC(=O)Nc2cccc(C(=O)Nc3cc(C(=O)Nc4ccc(S(=O)(=O)O)c5cc(S(=O)(=O)O)cc(S(=O)(=O)O)c45)ccc3C)c2)c1 [suramin, 1,3,5-Naphthalenetrisulfonic acid, 8,8′-[carbonylbis[imino-3,1-phenylenecarbonylimino(4-methyl-3,1-phenylene)carbonylimino]]bis-]
Plasma Concentration ([1]; 10 mg/kg IV, visit 2, day 1, 1 h post-infusion): 229000 ng/mL
Plasma Concentration ([1]; 10 mg/kg IV, visit 4, day 28, 1 h post-infusion): 157000 ng/mL
Plasma Concentration ([1]; 10 mg/kg IV, visit 4, day 28, pre-dose): 4310 ng/mL
Plasma Concentration ([1]; 10 mg/kg IV, visit 5, day 56, 1 h post-infusion): 164000 ng/mL
Plasma Concentration ([1]; 10 mg/kg IV, visit 5, day 56, pre-dose): 7960 ng/mL
Plasma Concentration ([1]; 10 mg/kg IV, visit 7, day 96, EOS): 7870 ng/mL
Dose proportionality of AUC0-96 [1, 5]: nearly dose proportional
Dose proportionality of Cmax [1, 5]: less than dose proportional
Plasma Concentration ([1]; 20 mg/kg IV, visit 2, day 1, 1 h post-infusion): 328000 ng/mL
Plasma Concentration ([1]; 20 mg/kg IV, visit 4, day 28, 1 h post-infusion): 327000 ng/mL
Plasma Concentration ([1]; 20 mg/kg IV, visit 4, day 28, pre-dose): 11000 ng/mL
Plasma Concentration ([1]; 20 mg/kg IV, visit 5, day 56, 1 h post-infusion): 332000 ng/mL
Plasma Concentration ([1]; 20 mg/kg IV, visit 5, day 56, pre-dose): 21100 ng/mL
Plasma Concentration ([1]; 20 mg/kg IV, visit 7, day 96, EOS): 23400 ng/mL
AUCInterval [1, 6]: 4780 µg·days/mL
AUCinterval/Dose [1, 6]: 478 µg·days/mL/mg
Cmax/Dose [1, 6]: 24.4 µg/mL/mg
Cmin [1, 6]: 4300 ng/mL
AUCInterval [1, 7]: 9510 µg·days/mL
AUCinterval/Dose [1, 7]: 475 µg·days/mL/mg
Cmax/Dose [1, 7]: 18.3 µg/mL/mg
Cmin [1, 7]: 10600 ng/mL
AUCOverall [1, 8]: 4600.0 µg·days/mL
AUCVisit 4 [1, 8]: 1195.6 µg·days/mL
AUCVisit 5 [1, 8]: 1386.7 µg·days/mL
AUCVisit 7 [1, 8]: 2017.7 µg·days/mL
AUCinterval/Dose [1, 8]: 460.0 µg·days/mL/mg
Cmax/Dose [1, 8]: 18.1 µg/mL/mg
Cmin, Visit 5 [1, 8]: 7700 ng/mL
Cmin, Visit 7 [1, 8]: 7700 ng/mL
Cmin. overall [1, 8]: 4400 ng/mL
AUCOverall [1, 9]: 10203.6 µg·days/mL
AUCVisit 4 [1, 9]: 2431.4 µg·days/mL
AUCVisit 5 [1, 9]: 3121.4 µg·days/mL
AUCVisit 7 [1, 9]: 4650.7 µg·days/mL
AUCinterval/Dose [1, 9]: 510.1 µg·days/mL/mg
Cmax/Dose [1, 9]: 18.0 µg/mL/mg
Cmin, Visit 5 [1, 9]: 21900 ng/mL
Cmin, Visit 7 [1, 9]: 24200 ng/mL
Cmin. overall [1, 9]: 10600 ng/mL
half-life ([1]; 10 mg low dose level, inferred from lack of accumulation): < 28 days
half-life ([1]; 20 mg high dose level, inferred from accumulation): > 28 days
Cmax ([1]; Table 3A, 10 mg dose group, IV, children, read-out: Cmax): 244000 ng/mL
Cmax ([1]; Table 3C, 20 mg dose group, IV, children, read-out: Cmax): 365000 ng/mL
Cmax ([1]; Table 7, 10 mg/kg Dose, n = 13, IV, read-out: Cmax, Oveall): 181000 ng/mL
concentration at 28 day [1, 8]: 4400 ng/mL
Cmax ([1]; Table 7, 20 mg/kg Dose, n = 14, IV, read-out: Cmax, Oveall): 359000 ng/mL
concentration at 28 day [1, 9]: 10900 ng/mL
change in ABC scores from baseline versus exposure [2]: A greater change in ABC scores from baseline was observed with lower exposures
correlation between blood levels and efficacy (ABC) ([2]; multiple doses): dynamic nonlinear correlation between antipurinergic blood levels and efficacy
adverse effects such as visible rash or vomiting ([3]; 10 mg/kg dose group): only one event
adverse effects such as visible rash or vomiting ([3]; 20 mg/kg dose group): occurred mostly in the 20 mg/kg dose group
half-life, average ([4]; average): 50 days
oral bioavailability ([4]; in vivo, po): poor oral bioavailability
